Tests used:
[1] = test system: Huh7, H1299, and HCT116; experiment: Cleaved-parp protein on western blot; type: cell-based; conditions: data not shown
Description: (§1) miRNA-193a treatment in various cancer cell lines decreased cell viability over time as measured by either an MTS assay or by cell count. It enhanced apoptosis induction over time as measured by a caspase 3/7 apoptosis assay. […] It is of note that due to intrinsic characteristics and gene mutation status of each cell line, performing one method to detect apoptosis is not always ideal for all cell lines.

[2] = test system: A549, H460; experiment: Caspase 3/7 apoptosis assay; type: cell-based, human; conditions: 10 nM, normalized to mock
Procedure: (§2) Depending on cancer cell type 3000-6000 cells were seeded in a 96 well plate. After cells attached, they were transfected with different concentrations of miRNA-193a and apoptosis induction was measured at different time points. This assay was performed using Promega kit. 100 uL of caspase reagent was added to 100 uL of media in each well in 96-well plate and incubated for 2 hours in the dark at room temperature. The luminescent signal was read on a luminescent plate reader.
(§3) Different biological effects of miRNA-193a-3p have been tested in various cancer cell lines (see Table 13). For this, various cells were treated with miRNA-193a at different concentrations (1, 3, 10 nM). For all experiments controls (untreated, mock and scrambled) were measured. All assays were performed at 24h, 48h and 72h time points. Data shown in Table 13 are the results for miRNA-193a at 10 nM concentration at indicated time points. All the results have been quantified and normalized to the mock control.
as §1

[3] = test system: A2058; experiment: Caspase 3/7 apoptosis assay; type: cell-based, human; conditions: 10 nM, normalized to mock
Procedure: as §2, §3, §1

[4] = test system: HeP3B, SNU449; experiment: Caspase 3/7 apoptosis assay; type: cell-based, human; conditions: 10 nM, normalized to mock
Procedure: as §2, §3, §1

[5] = test system: Huh7; experiment: Caspase 3/7 apoptosis assay; type: cell-based, human; conditions: 10 nM, normalized to mock
Procedure: as §2, §3, §1

[6] = test system: 4T1 cells; experiment: Adoptive CD3+ T-cell transfer from survivors into naive mice, 4T1 challenge; type: in vivo; conditions: 1×107 CD3+ T-cells iv; followed about 5 weeks; vs control naïve mice
Procedure: Adoptive transfer of CD3+ T cells form the survivor mice into naive mice was performed after spleens, auxiliary, brachial, and inguinal lymph nodes excision. Cell suspension were made from the indicated organs and pooled. Then, CD3+ T-cells were isolated from the pool using magnetic beads according the manufacturer's protocol (Miltenyi Biotech). 1×107 CD3+ T-cells per mouse were injected intravenously.
On day 133 post-tumor cell inoculation CD3+ T-cells were recovered from the spleens, auxiliary, brachial, and inguinal lymph nodes of the surviving animals. T-cells were pooled and transferred i.v. to 6 naïve age-matched mice (1×107 CD3+ Tcells per mouse at day 0). One day post-T-cell transfer, animals were re-challenged with 3×10^5 4T1 cells in PBS (0.1 mL/mouse) in the right mammary fat pad of 6 naive age-matched mice (as control group) and the 6 mice that received CD3+ T-cells. Tumor growth was followed for about 5 weeks.

[7] = test system: 4T1; experiment: Caspase 3/7 apoptosis assay; type: cell-based, mouse; conditions: 10 nM, normalized to mock
Procedure: as §2, §3, §1

[8] = test system: A549, H460, HEP3B, HUH7, A2058, BT549; experiment: RNA-sequencing differential expression in six cancer cell lines; type: cell-based, human; conditions: for Down-regulated genes: adjusted P<0.1, 10 nM, 24h
Procedure: Six human cancer cell lines were cultured in appropriate media (Table 3) and seeded into 6-well plates 24h before transfection with 10 nM miRNA-193a-3p or mock using Lipofectamine RNAiMAX (Thermofisher). Reagents were aspirated 16h after transfection and cells were passaged into new 6-well plates. Media was aspirated 24h after transfection and plates were stored at −80° C. Three independent replicates were performed for each cell line.
RNA was isolated using the miRNeasy Mini kit (Qiagen). The procedure included on-column DNase treatment. RNA concentration was measured on NanodropOne. 150 ng of each independent replicate was pooled and 450 ng samples (Table) were submitted to GenomeScan BV (Leiden, The Netherlands).
PolyA enrichment was performed followed by next generation RNA-Sequencing using Illumina NovaSeq 6000 at GenomeScan BV. The data processing workflow included raw data quality control, adapter trimming, and alignment of short reads. The reference GRCh37.75.dna.primary_assembly was used for alignment of the reads for each sample. Based on the mapped locations in the alignment file the frequency of how often a read was mapped on a transcript was determined (feature counting). The counts were saved to count files, which serve as input for downstream RNA-Seq differential expression analysis.
Differential expression analysis was performed on the short read data set by GenomeScan BV. The read counts were loaded into the DESeq package v1.30.0, a statistical package within the R platform v3.4.4. DESeq was specifically developed to find differentially expressed genes between two conditions (mock versus miRNA-193a-3p) for RNA-Seq data with small sample size and over-dispersion. […]

[9] = test system: orthotopic human Hep3b hepatocellular carcinoma tumors; experiment: Tumor growth inhibition, orthotopic Hep3b model, AFP levels and tumor weights (Example 4.3); type: in vivo, mice; conditions: formulated in diamino lipid nanoparticles, iv
Procedure: Seven to 8 weeks old female SCID/Beige mice (Shanghai Lingchang Bio-Technology Co. Ltd, Shanghai, China) were orthotopically implanted with a single 2×2×2 mm piece of a subq grown Hep3b tumor into the left liver lobe. Mice were randomized based on day 21 AFP levels. At the time of randomization, the AFP levels (ng/ml plasma) ranged between 1019 and 19779 ng/ml (median 5203, IQR=2690-9498). Treatments started on day 22 and continued for three weeks (see Table 8 for dosing scheme). AFP was measured once a week (4 times in total), and BW was measured twice a week. At the end of the study tumor weights were also determined. QDx3, QDx5=one injection per day for three or five consecutive days; BIW=twice a week; BID=twice daily; po=per oral.

miRNA-193a: duplex of the miRNA-193a-3p of SEQ ID NO: 218 (mimic, sense) with antisense strand SEQ ID NO: 219; naked in vitro, formulated in vivo (sense UGGGACUUUGUAGGCCAGUUTT; antisense AACUGGCCUACAAAGUCCCAGU; chemistry not given here; listed as Homo sapiens)
Cleaved-parp protein on western blot [1]: enhanced cleaved-parp protein | Apoptosis (48/72 h) [2]: ↑↑ (Induction > 2x) | Apoptosis (48/72 h) [3]: ↑↑ (Induction > 2x) | Apoptosis (48/72 h) [4]: ↑ (Induction < 2x) | Apoptosis (48/72 h) [5]: ↑ (Induction < 2x) | 4T1 tumor growth in naive mice that received CD3+ T-cells from treated survivors [6]: did not show any 4T1 tumor growth | Apoptosis (48/72 h) [7]: ↑ (Induction < 2x) | % Predicted ([8]; # cell lines =6): 83% | Down-regulated genes ([8]; # cell lines =6): 35 | % Predicted ([8]; # cell lines ≥1): 58% | Down-regulated genes ([8]; # cell lines ≥1): 352 | % Predicted ([8]; # cell lines ≥2): 65% | Down-regulated genes ([8]; # cell lines ≥2): 282 | % Predicted ([8]; # cell lines ≥3): 67% | Down-regulated genes ([8]; # cell lines ≥3): 242 | % Predicted ([8]; # cell lines ≥4): 66% | Down-regulated genes ([8]; # cell lines ≥4): 218 | % Predicted ([8]; # cell lines ≥5): 63% | Down-regulated genes ([8]; # cell lines ≥5): 181 | TGI effects (AFP levels, tumor weights) [9]: significant TGI effects
